Experimental data from patent publication US20230221325A1, “SOLUBLE CD28 LEVELS AFTER IMMUNOTHERAPY” (BIOND BIOLOGICS LTD., priority 2019, published 2023).

Assays:
[1] = system: CMV-stimulated PBMC; test: CMV activation of PBMCs for the generation of soluble CD28 (ELISA); type: cell-based, human; settings: 7 days CMV stimulation, with anti-PD-1 (Keytruda) 5 μg/mL, inhibitor 1 μM
[2] = system: SEB stimulated human PBMC; test: SEB activation of PBMCs for the generation of soluble CD28 (ELISA); type: cell-based
[3] = system: melanoma patients; test: Survival of melanoma patients on anti-PD1 therapy by sCD28 level before therapy; type: in vivo, human
Description: To further understand the impact of sCD28 levels on cancer progression during immunotherapy, more than 100 serum samples from melanoma patients prior to initiation of anti-PD1 therapy (Nivolumab, NCT01176461) were tested for sCD28 levels by ELISA. Survival was monitored throughout therapy and a survival function was plotted comparing subjects with high and low levels of sCD28 before therapy (FIG. 1).

With `CNC(=O)[C@@H](NC(=O)[C@H](CCCc1ccccc1)[C@H](C)N(O)C=O)C(C)(C)C` [GI254023X] as the compound, how does the “sCD28 increase caused by anti-PD-1” value [1] read?
Its value is “abrogated the sCD28 increase caused by immunotherapy”.

For Keytruda: Anti-PD-1 (Keytruda, Merck), which “sCD28 in the media (increase induced by SEB)” value ([2]; PBMCs from two healthy donors, SEB for 8 days, anti-PD-1 5 μg/mL vs isotype control) is on record?
The value was “enhanced”.

And the “sCD28 increase caused by the immunotherapy, significance” value ([2]; days 6-8, vs isotype control)?
Its value is “statistically significant”.

Which results are given for “Nivolumab: anti-PD1 therapy (NCT01176461)”?
median survival ([3]; subjects with high levels of sCD28 before therapy): 514 days; median survival ([3]; subjects with low levels of sCD28 (below 2 ng/mL) before therapy): 659 days
